Reference: patent US10238656B2, “Combination therapy for cancer” (Eli Lilly and Company, priority 2014, dated 2019)
Where “and” joins values, the source holds several entries; their conditions need not be identical. Identical values can stand only once.

Tests used:
[1] = Body weight (tolerability), NCI-H441 xenograft Study 2; format: in vivo, female Hsd athymic nude mice
Experimental: (§1) Assess antitumor efficacy of the combination of DC101 and Compound A by measuring tumor volume by three dimensional caliper measurements twice a week during the course of the study. Measure body weight twice weekly during the course of the study, as a general indicator of tolerability.
(§2) Treat female Hsd athymic nude mice (n=7) bearing NCI-H441 xenograft tumors with Compound A by oral gavage (PO) once daily for 28 days at a dose of 50 or 75 mg/kg using 0.2 mL/dose. Administer Compound A starting after the mean tumor volumes reach approximately 150-200 mm^3 in size (day 36 after tumor implantation) and end treatment 28 days later (on day 63). Measure tumor volume and body weight twice a week for the duration of the treatment period.
(§3) Treat female Hsd athymic nude mice (n=7) bearing NCI-H441 xenograft tumors with DC101 twice weekly for four weeks by intraperitoneal injection at a dose 20 mg/kg. Administer DC101 starting after the mean tumor volumes reach approximately 150-200 mm^3 in size (day 36 after tumor implantation). Measure tumor volume and body weight twice a week for the duration of the treatment period.
Treat female Hsd athymic nude mice (n=7) bearing NCI-H441 xenograft tumors with Compound A by oral gavage once daily for 28 days at a dose of 50 mg/kg or 75 mg/kg using 0.2 mL/dose and intraperitoneal inject DC101 twice weekly at a dose of 20 mg/kg. […]

[2] = Body weight (tolerability), NCI-H2122 xenograft study; format: in vivo, female Hsd athymic nude mice; details: Compound A 50 or 75 mg/kg monotherapy
Experimental: as §1
as §2, with “(n=8)” for “(n=7)”, “NCI-H2122” for “NCI-H441”, “16” for “36”, “on” for “28 days later (on”, “43.” for “63).”
as §3, with “(n=8)” for “(n=7)”, “NCI-H2122” for “NCI-H441”, “DC101” for “DC101 twice weekly for four weeks”, “16” for “36”, “implantation) and continue twice weekly for four weeks.” for “implantation).”
Treat female Hsd athymic nude mice (n=8) bearing NCI-H2122 xenograft tumors with Compound A by oral gavage (PO) once daily for 28 days at a dose of 50 or 75 mg/kg using 0.2 mL/dose and intraperitoneal inject DC101 twice weekly at a dose of 20 mg/kg. […]

[3] = system: NCI-H2122 xenograft tumors; experiment: Antitumor efficacy in NCI-H2122 xenograft model; format: in vivo, female Hsd athymic nude mice; details: Day 45
From the text: (§4) Grow the human NSCLC line NCI-H441 or NCI-H2122 in RPMI 1640 medium+10% fetal bovine serum. Harvest sub-confluent cells with trypsin and rinse twice with growth medium without serum. For subcutaneous tumors, initiate growth by subcutaneous injection of 5×10^6 cells in a 1:1 mixture of Hank's balanced salt solution (HBSS) and Matrigel (BD Bioscience, Franklin Lakes, N.J.) in the rear flank of each subject animal. When mean tumors volumes reach approximately 150-200 mm^3 in size, randomize the animals by tumor size and body weight by randomization techniques well known in the art and place into their respective treatment groups using the number of animals per group as indicated.
Capture tumor size and body weight using Web Director. Estimate tumor volume (V) by using the formula: V=0.536L×W^2 where L=larger of measured diameter and W=smaller of perpendicular diameter. Transform the tumor volume data to a log scale to equalize variance across time and treatment groups. […] Calculate relative changes in tumor volume (% T/C) using the tumor volume measurements taken nearest to the last day of dosing with Compound A, whereas the baseline tumor volume is the volume recorded on or just prior to first day of dosing. […] Tumor growth inhibition is observed in those instances where the calculated values for % T/C are less than 100% whereby greater inhibition results in smaller % T/C values. […]

[4] = system: NCI-H441 xenograft tumors; experiment: Antitumor efficacy in NCI-H441 xenograft model, Study 1; format: in vivo, female Hsd athymic nude mice
From the text: as §4
Capture tumor size and body weight using Web Director. Estimate tumor volume (V) by using the formula: V=0.536L×W^2 where L=larger of measured diameter and W=smaller of perpendicular diameter. Transform the tumor volume data to a log scale to equalize variance across time and treatment groups. Analyze the log volume data with a two-way repeated measures analysis of variance by time and treatment using the MIXED procedures in SAS software (Version 9.3). The correlation model for the repeated measures is Spatial Power. Compare treated groups compared to the control group at each time point. Use the MIXED procedure also separately for each treatment group to calculate adjusted means and standard errors at each time point. Both analyses account for the autocorrelation within each animal and the loss of data that occurred when animals with large tumors were removed from the study early. Plot the adjusted means and standard errors for each treatment group versus time. Calculate relative changes in tumor volume (% T/C) using the tumor volume measurements taken nearest to the last day of dosing with Compound A, whereas the baseline tumor volume is the volume recorded on or just prior to first day of dosing. Calculate % T/C values using the formula % T/C=100×ΔT/ΔC, whereby T=mean tumor volume of the compound treated group, ΔT=mean tumor volume of the compound treated group minus the mean tumor volume on the baseline day, C=mean tumor volume of the control (vehicle) group, and ΔC=mean tumor volume of the control group minus the mean tumor volume on the baseline day. Tumor growth inhibition is observed in those instances where the calculated values for % T/C are less than 100% whereby greater inhibition results in smaller % T/C values. If ΔT was <0, then a tumor regression value was calculated instead of % T/C whereby % Regression=100×ΔT/Tinitial such that Tinitial=the grand mean of the tumor volume for all the treatment groups. Any negative values for % T/C listed are values for % Regression. […]

[5] = Body weight (tolerability), NCI-H441 xenograft Study 1; format: in vivo, female Hsd athymic nude mice; details: baseline (day 14) versus day 42
Experimental: as §1
as §2, with “(n=8)” for “(n=7)”, “gavage” for “gavage (PO)”, “100” for “75”, “15” for “36”, “42).” for “63).”
Treat female Hsd athymic nude mice (n=8) bearing NCI-H441 xenograft tumors with DC101 twice weekly for four weeks by intraperitoneal injection at doses of 10, 20 or 40 mg/kg. Administer DC101 starting after the mean tumor volumes reach approximately 150-200 mm^3 in size (day 15 after tumor implantation) and end on day 39. Measure tumor volume and body weight twice a week for the duration of the treatment period.
Treat female Hsd athymic nude mice (n=8) bearing NCI-H441 xenograft tumors with Compound A by oral gavage once daily for 28 days at a dose of 50 mg/kg using 0.2 mL/dose and intraperitoneal inject DC101 twice weekly at a dose of 20 mg/kg. […]

[6] = system: NCI-H441 xenograft tumors; experiment: Antitumor efficacy in NCI-H441 xenograft model, Study 2; format: in vivo, female Hsd athymic nude mice
From the text: as §4
Capture tumor size and body weight using Web Director. Estimate tumor volume (V) by using the formula: V=0.536L×W^2 where L=larger of measured diameter and W=smaller of perpendicular diameter. Transform the tumor volume data to a log scale to equalize variance across time and treatment groups. Analyze the log volume data with a two-way repeated measures analysis of variance by time and treatment using the MIXED procedures in SAS software (Version 9.3). The correlation model for the repeated measures is Spatial Power. Compare treated groups compared to the control group at each time point. Use the MIXED procedure also separately for each treatment group to calculate adjusted means and standard errors at each time point. Both analyses account for the autocorrelation within each animal and the loss of data that occurred when animals with large tumors were removed from the study early. Plot the adjusted means and standard errors for each treatment group versus time. Calculate relative changes in tumor volume (% T/C) using the tumor volume measurements taken nearest to the last day of dosing with Compound A, whereas the baseline tumor volume is the volume recorded on or just prior to first day of dosing. Calculate % T/C values using the formula % T/C=100×ΔT/ΔC, whereby T=mean tumor volume of the compound treated group, ΔT=mean tumor volume of the compound treated group minus the mean tumor volume on the baseline day, C=mean tumor volume of the control (vehicle) group, and ΔC=mean tumor volume of the control group minus the mean tumor volume on the baseline day. Tumor growth inhibition is observed in those instances where the calculated values for % T/C are less than 100% whereby greater inhibition results in smaller % T/C values. If ΔT was <0, then a tumor regression value was calculated instead of % T/C whereby % Regression=100×ΔT/Tinitial such that Tinitial=the grand mean of the tumor volume for all the treatment groups. Any negative values for % T/C listed are values for % Regression.
as §1
Formulations for Compound A and DC101: Formulate Compound A on a weekly basis in 1% hydroxyethyl cellulose (HEC) in 25 mM phosphate buffer (PB) at a pH of 2 and store at 4° C. Solubilize DC101 in phosphate buffered saline and store at 4° C.
Control Group: administer to the animals in the control group, both vehicles used for Compound A and DC101 according to the same schedules for each compound, respectively.
For the monotherapy groups, treat the animals with the desired compound as directed and with the vehicle for the compound not being dosed by following the schedule for the non-dosed compound.
as §2, with “Measure tumor volume and body weight twice a week for the duration of the treatment period.” left out

[7] = system: Stage IV NSCLC; experiment: Phase 1b study of abemaciclib in combination with ramucirumab, tumor response; format: in vivo, human; design: key: PR is partial response;; SD is stable disease;; PD is progressive disease;; NDR is no data reported; details: preliminary
Experimental: This study is a multicenter, nonrandomized, open-label, dose-escalation Phase 1b study of oral dosing of [5-(4-ethyl-piperazin-1-ylmethyl)-pyridin-2-yl]-[5-fluoro-4-(7-fluoro-3-isopropyl-2-methyl-3H-benzoimidazol-5-yl)-pyrimidin-2-yl]-amine at 100 mg, 150 mg, or 200 mg every 12 (±3) hours on Days 1 through 21 of a 21-day cycle. in combination with ramucirumab administered at 10 mg/kg over a 60-minute IV infusion followed by a 1-hour observation period on Day 1 of a 21-day cycle for patients with Stage IV NSCLC.
The primary objective of this study is to evaluate the safety and tolerability of [5-(4-ethyl-piperazin-1-ylmethyl)-pyridin-2-yl]-[5-fluoro-4-(7-fluoro-3-isopropyl-2-methyl-3H-benzoimidazol-5-yl)-pyrimidin-2-yl]-amine when administered orally in combination with ramucirumab to patients with Stage IV NSCLC using Common Terminology Criteria for Adverse Events (CTCAE version 4.0, NCI 2009).
The secondary objectives of the study are to document the antitumor activity of [5-(4-ethyl-piperazin-1-ylmethyl)-pyridin-2-yl]-[5-fluoro-4-(7-fluoro-3-isopropyl-2-methyl-3H-benzoimidazol-5-yl)-pyrimidin-2-yl]-amine when given in combination with ramucirumab; to determine the pharmacokinetics (PK) of [5-(4-ethyl-piperazin-1-ylmethyl)-pyridin-2-yl]-[5-fluoro-4-(7-fluoro-3-isopropyl-2-methyl-3H-benzoimidazol-5-yl)-pyrimidin-2-yl]-amine when given in combination with ramucirumab; and to characterize changes in patient-reported pain and disease-related symptoms collected via the MD Anderson Symptom Inventory-Lung Cancer (MDASI-LC).
[5-(4-Ethyl-piperazin-1-ylmethyl)-pyridin-2-yl]-[5-fluoro-4-(7-fluoro-3-isopropyl-2-methyl-3H-benzoimidazol-5-yl)-pyrimidin-2-yl]-amine is supplied as capsules at 100 mg, 150 mg, or 200 mg for oral administration.
Ramucirumab is supplied in a sterile, preservative-free solution for infusion of ramucirumab formulated in an aqueous solution at a concentration of […] (500 mg/50-mL vial). The buffer contains 10 mM histidine, 75 mM sodium chloride, 133 mM glycine, and 0.01% polysorbate 80, pH 6.0. Ramucirumab is supplied in single-use 50-mL nominal volume glass vials.
The first dose of ramucirumab is dependent upon the patient's baseline body weight in kilograms. Subsequent doses of ramucirumab must be recalculated if there is a ≥10% change (increase or decrease) in body weight from last dose calculation; subsequent doses may be recalculated if there is a <10% change (increase or decrease) in body weight from last dose calculation.

[8] = Compound A 50 mg/kg monotherapy
[9] = Compound A 75 mg/kg monotherapy
[10] = Compound A 50 mg/kg monotherapy, end of treatment period
[11] = abemaciclib 150 mg every 12 hours + ramucirumab 10 mg/kg IV Day 1 of 21-day cycle, individual patients 1-3
[12] = abemaciclib 200 mg every 12 hours + ramucirumab 10 mg/kg IV Day 1 of 21-day cycle, individual patients 4-8

SMILES: CCN1CCN(Cc2ccc(Nc3ncc(F)c(-c4cc(F)c5nc(C)n(C(C)C)c5c4)n3)nc2)CC1.CS(=O)(=O)O [Compound A, [5-(4-Ethyl-piperazin-1-ylmethyl)-pyridin-2-yl]-[5-fluoro-4-(7-fluoro-3-isopropyl-2-methyl-3H-benzoimidazol-5-yl)-pyrimidin-2-yl]-amine methanesulfonate]
- maximum relative body weight loss [1, 8]: 5.5%
- maximum relative body weight loss [1, 9]: 5.1%
- changes in relative body weight [2]: not statistically different from the control group
- % T/C ([3]; Compound A 50 mg/kg PO once daily 28 days): 64.3%
- % T/C ([3]; Compound A 75 mg/kg PO once daily 28 days): 37.3%
- partial response (animals) [4, 10]: 6/8
- stable disease (animals) [4, 10]: 2/8
- partial response (animals) ([4]; Compound A 100 mg/kg monotherapy, end of treatment period): 8/8
- mean percent regression ([4]; Compound A 100 mg/kg oral gavage once daily 28 days, study day 42): −22.8%
- maximum relative body weight loss ([5]; Compound A 50 mg/kg): 2.7%
- maximum relative body weight loss ([5]; Compound A 100 mg/kg): 4.7%
- % T/C ([6]; Compound A 50 mg/kg PO once daily 28 days, Day 67): 7.0%
- combined frequency for stable disease and partial response (disease control rate) [6, 8]: 4/7
- mice achieving complete regression [6, 8]: 2/7
- regression ([6]; Compound A 75 mg/kg PO once daily 28 days, Day 67): −4.8%
- combined frequency for stable disease and partial response (disease control rate) [6, 9]: 6/7
- mice achieving complete regression [6, 9]: 3/7

SMILES: CCN1CCN(Cc2ccc(Nc3ncc(F)c(-c4cc(F)c5nc(C)n(C(C)C)c5c4)n3)nc2)CC1 [abemaciclib, [5-(4-Ethyl-piperazin-1-ylmethyl)-pyridin-2-yl]-[5-fluoro-4-(7-fluoro-3-isopropyl-2-methyl-3H-benzoimidazol-5-yl)-pyrimidin-2-yl]-amine]
- Overall Response [7, 11]: SD and PR and PD
- Target Response [7, 11]: SD and PR
- Overall Response [7, 12]: SD (3×) and PD and PR
- Target Response [7, 12]: SD (2×) and PD and PR
